Assay results reported in patent US10730887B2, “Compound containing tricyclic heteroaryl group” (Hangzhou Innogate Pharma Co., Ltd., priority 2016, dated 2020).

Legend:
Assay type in all cases: biochemical
[1] = target: EGFR (T790M/L858R) (Homo sapiens, UniProt P00533, L858R/T790M); assay: EGFR (T790M/L858R) kinase activity inhibition, Caliper mobility shift assay
Protocol: (§1) EGFR and EGFR (T790M/L858R) protein kinase activities were determined using the Caliper mobility shift assay. The compound was dissolved in DMSO and diluted with kinase buffer (EGFR (T790M/L858R): 50 mM HEPES at pH 7.5, 0.0015% Brij-35, 10 mM MgCl2, 2 mM DTT; EGFR: pH 7.5 50 mM HEPES, 0.0015% Brij-35, 10 mM MgCl2, 10 mM MnCl2, 2 mM DTT), 5 μL of 5 times the final concentration of the compound (10% DMSO) was added to a 384-well plate. Add 10 μL of 2.5-fold enzyme (using EGFR and EGFR (1790M/L858R), respectively) and incubate for 10 minutes at room temperature, then add 10 μL of 2.5-fold substrate (Peptide FAM-P22 and ATP) solution. After incubation at 28° C. for 60 minutes, the reaction was stopped by adding 25 μL of stop solution (100 mM HEPES, 0.015% Brij-35, 0.2% Coating Reagent #3, 50 mM EDTA, pH 7.5). Conversion rate data was read on a Caliper EZ Reader II (Caliper Life Sciences). The conversion rate was converted into inhibition rate data (% inhibition rate=(max−conversion rate)/(max−min)*100). Where max is the conversion of the DMSO control and min is the conversion of the enzyme-free control Curves were plotted with compound concentration and inhibition rate on the horizontal and vertical coordinates, and the curve was fitted using XLFit excel add-in version 4.3.1 software and IC50 was calculated.

[2] = target: EGFR (Homo sapiens, UniProt P00533); assay: EGFR kinase activity inhibition, Caliper mobility shift assay
Protocol: as §1

[3] = target: Jak2 (Homo sapiens, UniProt O60674); assay: Jak2 kinase activity inhibition, Caliper Reader
Protocol: Kinase JAk1 and Jak2 enzyme inhibition IC50 evaluation experiments: The buffer was configured with the following components: 50 mM HEPES, pH 7.5, 0.00015% Brij-35. Compounds were placed in a concentration gradient in 100% DMSO and diluted to 10% DMSO with buffer and added to 384 well plates. For example, when the initial concentration of the compound is […], it is made into 12.5 μM with 100% DMSO, and diluted by 5 or 6 concentrations, and then diluted 10-fold with buffer to prepare an intermediate dilution of the compound containing 10% DMSO. Transfer 5 μL, to 384-well plate. The Jak1 and Jak2 enzymes were diluted to the optimal concentration with the following buffer: 50 mM HEPES, pH 7.5, 0.00015% Brij-35, 2 mM DTT. Transfer 10 μL to a 384-well plate and incubate with the compound for 10-15 minutes. The substrate was diluted to the optimal concentration with the following buffer: 50 mM HEPES, pH 7.5, 0.00015% Brij-35, 10 mM MgCl2, adenosine triphosphate at Km. The reaction was initiated by adding 10 μL to a 384-well plate and reacted at 28° C. for 1 hour. The conversion rate was then read using a Caliper Reader and the inhibition rate was calculated. The formula is as follows: Percent inhibition=(max−conversion)/(max−min)*100. Where max is the conversion of the DMSO control and min is the conversion of the enzyme-free control. Fit the IC50 value with XLFit excel add-in version 5.4.0.8. Fitting formula: Y=Bottom+(Top−Bottom)/(1+(IC50/X)^HillSlope).

[4] = target: SYK (Homo sapiens, UniProt P43405); assay: Syk kinase activity inhibition, Caliper mobility shift assay
Protocol: SYK protein kinase activity was determined using the Caliper mobility shift assay. The compound was dissolved in DMSO and diluted with kinase buffer (20 mM HEPES, 0.01% Triton X-100, 5 mM MgCl2, 1 mM MnCl2, 2 mM DTT), and 5 μL of 5 times final concentration was added to the 384-well plate Compound (10% DMSO). After adding 10 μL of 2.5-fold enzyme (with SYK) solution, incubate for 10 minutes at room temperature, and then add 10 μL of 2.5-fold substrate (Peptide FAM-P22 and ATP) solution. Incubate at 28° C. for 30 minutes, then stop the reaction by adding 25 μL of stop solution (100 mM HEPES, 0.015% Brij-35, 0.2% Coating Reagent #13, 50 mM EDTA, pH 7.5). Conversion rate data was read on a Caliper EZ Reader II (Caliper Life Sciences) The conversion rate was converted into inhibition rate data (% inhibition rate=(max−conversion rate)/(max−min)*100). Where max is the conversion of the DMSO control and min is the conversion of the enzyme-free control. Curves were plotted with compound concentration and inhibition rate on the horizontal and vertical coordinates, and the curve was fitted using XLFit excel add-in version 4.3.1 software and IC50 was calculated.

EGFR, sequence (P00533 25-1210): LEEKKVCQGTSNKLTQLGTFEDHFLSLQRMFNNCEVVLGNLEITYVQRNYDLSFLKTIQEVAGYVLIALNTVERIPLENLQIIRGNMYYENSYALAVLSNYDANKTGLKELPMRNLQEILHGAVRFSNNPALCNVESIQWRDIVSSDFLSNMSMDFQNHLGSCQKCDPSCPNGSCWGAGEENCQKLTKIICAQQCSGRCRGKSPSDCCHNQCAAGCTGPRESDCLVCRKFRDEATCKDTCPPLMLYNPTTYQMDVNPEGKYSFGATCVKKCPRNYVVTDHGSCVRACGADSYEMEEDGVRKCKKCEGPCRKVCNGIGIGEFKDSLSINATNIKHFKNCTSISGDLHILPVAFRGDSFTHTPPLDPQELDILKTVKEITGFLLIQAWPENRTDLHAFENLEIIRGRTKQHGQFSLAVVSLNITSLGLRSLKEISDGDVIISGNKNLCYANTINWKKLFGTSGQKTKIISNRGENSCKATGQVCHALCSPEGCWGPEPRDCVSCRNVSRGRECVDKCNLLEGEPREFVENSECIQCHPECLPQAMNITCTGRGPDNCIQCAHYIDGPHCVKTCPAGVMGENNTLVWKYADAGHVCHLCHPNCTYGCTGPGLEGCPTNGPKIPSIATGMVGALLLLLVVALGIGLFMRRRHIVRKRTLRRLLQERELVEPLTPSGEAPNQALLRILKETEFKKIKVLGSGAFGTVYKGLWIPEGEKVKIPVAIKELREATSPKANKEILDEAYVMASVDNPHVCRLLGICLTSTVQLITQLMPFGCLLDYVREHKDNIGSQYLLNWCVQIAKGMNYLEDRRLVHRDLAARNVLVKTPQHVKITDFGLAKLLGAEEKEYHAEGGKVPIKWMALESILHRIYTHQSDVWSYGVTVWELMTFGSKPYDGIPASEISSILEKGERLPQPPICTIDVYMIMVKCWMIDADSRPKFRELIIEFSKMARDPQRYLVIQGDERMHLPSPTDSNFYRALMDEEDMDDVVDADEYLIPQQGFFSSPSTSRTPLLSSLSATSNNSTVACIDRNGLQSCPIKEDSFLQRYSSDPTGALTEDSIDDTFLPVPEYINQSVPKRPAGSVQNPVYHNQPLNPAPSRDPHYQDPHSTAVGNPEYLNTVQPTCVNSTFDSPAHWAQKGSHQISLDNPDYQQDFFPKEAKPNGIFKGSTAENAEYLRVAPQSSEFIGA
Jak2, sequence (O60674 whole entry, species assumed): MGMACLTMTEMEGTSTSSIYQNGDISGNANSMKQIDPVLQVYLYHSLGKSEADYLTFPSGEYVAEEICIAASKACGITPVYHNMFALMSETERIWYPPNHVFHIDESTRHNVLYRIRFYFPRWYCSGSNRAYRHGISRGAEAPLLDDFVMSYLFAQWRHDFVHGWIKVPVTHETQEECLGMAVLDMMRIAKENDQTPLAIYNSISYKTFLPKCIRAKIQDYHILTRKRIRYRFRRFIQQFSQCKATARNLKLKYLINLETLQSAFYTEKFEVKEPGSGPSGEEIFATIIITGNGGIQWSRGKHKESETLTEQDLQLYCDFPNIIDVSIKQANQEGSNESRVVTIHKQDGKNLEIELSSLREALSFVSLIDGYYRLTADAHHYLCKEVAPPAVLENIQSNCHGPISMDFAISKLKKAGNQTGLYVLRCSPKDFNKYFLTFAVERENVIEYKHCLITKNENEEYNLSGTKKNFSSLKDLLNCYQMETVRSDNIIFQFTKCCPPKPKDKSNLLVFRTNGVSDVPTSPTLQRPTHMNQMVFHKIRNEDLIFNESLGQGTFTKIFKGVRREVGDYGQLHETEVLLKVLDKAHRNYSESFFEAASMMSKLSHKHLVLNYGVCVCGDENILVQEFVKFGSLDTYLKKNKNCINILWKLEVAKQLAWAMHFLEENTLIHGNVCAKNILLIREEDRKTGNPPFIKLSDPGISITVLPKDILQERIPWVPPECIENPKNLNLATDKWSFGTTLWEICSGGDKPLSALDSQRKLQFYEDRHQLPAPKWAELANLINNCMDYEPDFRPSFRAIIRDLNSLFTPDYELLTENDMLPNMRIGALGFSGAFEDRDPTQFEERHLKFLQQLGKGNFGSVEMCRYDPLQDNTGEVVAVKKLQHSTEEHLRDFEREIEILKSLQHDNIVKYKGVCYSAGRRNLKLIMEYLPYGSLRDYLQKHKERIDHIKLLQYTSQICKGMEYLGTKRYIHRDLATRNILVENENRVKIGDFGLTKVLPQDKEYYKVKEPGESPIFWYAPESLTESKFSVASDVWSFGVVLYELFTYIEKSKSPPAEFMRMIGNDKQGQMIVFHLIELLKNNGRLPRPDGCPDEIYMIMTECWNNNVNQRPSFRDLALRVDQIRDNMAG
EGFR (T790M/L858R), sequence (P00533 25-1210 T790M/L858R): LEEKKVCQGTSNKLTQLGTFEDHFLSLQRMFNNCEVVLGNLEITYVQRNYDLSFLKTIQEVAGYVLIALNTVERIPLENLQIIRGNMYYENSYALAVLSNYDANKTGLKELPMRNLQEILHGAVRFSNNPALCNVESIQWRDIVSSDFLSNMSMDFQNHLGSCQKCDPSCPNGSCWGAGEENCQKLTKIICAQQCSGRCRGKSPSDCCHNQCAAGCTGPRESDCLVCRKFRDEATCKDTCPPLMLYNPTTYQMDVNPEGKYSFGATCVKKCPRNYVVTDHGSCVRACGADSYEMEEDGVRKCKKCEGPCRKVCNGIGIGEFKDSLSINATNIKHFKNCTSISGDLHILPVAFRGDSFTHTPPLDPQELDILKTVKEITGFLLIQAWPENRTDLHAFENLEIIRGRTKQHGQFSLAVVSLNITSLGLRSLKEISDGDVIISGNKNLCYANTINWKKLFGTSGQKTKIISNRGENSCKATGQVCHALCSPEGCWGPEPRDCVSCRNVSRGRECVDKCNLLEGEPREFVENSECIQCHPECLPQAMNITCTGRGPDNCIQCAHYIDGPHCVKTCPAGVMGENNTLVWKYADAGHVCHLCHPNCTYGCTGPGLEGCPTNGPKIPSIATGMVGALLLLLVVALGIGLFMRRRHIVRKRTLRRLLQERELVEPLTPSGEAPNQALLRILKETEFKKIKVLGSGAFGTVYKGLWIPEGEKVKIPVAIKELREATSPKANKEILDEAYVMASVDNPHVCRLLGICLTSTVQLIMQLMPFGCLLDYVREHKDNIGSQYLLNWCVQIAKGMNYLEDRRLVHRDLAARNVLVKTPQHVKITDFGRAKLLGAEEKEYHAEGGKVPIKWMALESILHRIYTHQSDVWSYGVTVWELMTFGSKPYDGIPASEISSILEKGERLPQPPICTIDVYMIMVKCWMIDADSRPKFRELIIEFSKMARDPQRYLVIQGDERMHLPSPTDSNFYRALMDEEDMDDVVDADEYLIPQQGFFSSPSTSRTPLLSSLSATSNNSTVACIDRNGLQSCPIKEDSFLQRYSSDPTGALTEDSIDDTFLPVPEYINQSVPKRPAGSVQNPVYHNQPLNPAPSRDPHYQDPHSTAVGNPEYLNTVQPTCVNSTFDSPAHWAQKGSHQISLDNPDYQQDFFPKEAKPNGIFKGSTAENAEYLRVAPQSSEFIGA

| Structure (SMILES) | IC50 [1] | IC50 [2] | IC50 [3] | IC50 [4] |
| --- | --- | --- | --- | --- |
| C=CC(=O)Nc1cccc(Nc2nc(Nc3ccc4c(c3)OC[C@H]3CN(C)CCN43)ncc2C(F)(F)F)c1 [Compound A1R] | < 0.001 µM | < 0.1 µM |  |  |
| C=CC(=O)Nc1cccc(Nc2nc(Nc3ccc4c(c3)OC[C@@H]3CN(C)CCN43)ncc2C(F)(F)F)c1 [Compound A1S] | < 0.001 µM | < 0.1 µM |  |  |
| C=CC(=O)Nc1cccc(Nc2nc(Nc3ccc4c(c3)OCC3CN(C)CCN43)ncc2C(F)(F)F)c1 (centres unmarked) [Compound A1] | < 0.01 µM | < 0.1 µM |  |  |
| C=CC(=O)Nc1cccc(Nc2nc(Nc3ccc4c(c3)OC[C@H]3CN(C(C)=O)CCN43)ncc2C(F)(F)F)c1 [Compound A2R] | < 0.01 µM | < 0.1 µM |  |  |
| C=CC(=O)Nc1cccc(Nc2nc(Nc3ccc4c(c3)OC[C@@H]3CN(C(C)=O)CCN43)ncc2C(F)(F)F)c1 [Compound A2S] | < 0.01 µM | < 0.1 µM |  |  |
| C=CC(=O)Nc1cccc(Nc2nc(Nc3ccc4c(c3)OC[C@H]3CNCCN43)ncc2C(F)(F)F)c1 [Compound A3R] | < 0.001 µM | < 0.05 µM |  |  |
| C=CC(=O)Nc1cccc(Nc2nc(Nc3ccc4c(c3)OC[C@@H]3CNCCN43)ncc2C(F)(F)F)c1 [Compound A3S] | < 0.001 µM |  |  |  |
| C=CC(=O)Nc1cccc(Nc2nc(Nc3ccc4c(c3)OC[C@H]3CN(C(=O)C(F)(F)F)CCN43)ncc2C(F)(F)F)c1 [Compound A4R] | < 0.01 µM | < 0.1 µM |  |  |
| C=CC(=O)Nc1cccc(Nc2nc(Nc3ccc4c(c3)OC[C@H]3CN(CC)CCN43)ncc2C(F)(F)F)c1 [Compound A5R] | < 0.001 µM | < 0.1 µM |  |  |
| C=CC(=O)Nc1cccc(Nc2nc(Nc3ccc4c(c3)OC[C@H]3CN(C5CC5)CCN43)ncc2C(F)(F)F)c1 [Compound A6R] | < 0.01 µM | < 0.1 µM |  |  |

Other lines, results leading:

| IC50 [1] | IC50 [2] | IC50 [3] | IC50 [4] | Structure (SMILES) |
| --- | --- | --- | --- | --- |
| < 0.05 µM | < 0.5 µM |  |  | C=CC(=O)Nc1cccc(Nc2nc(Nc3ccc4c(c3)OC[C@H]3CN(CC(F)(F)F)CCN43)ncc2C(F)(F)F)c1 [Compound A7R] |
| < 0.01 µM | < 0.1 µM |  |  | C=CC(=O)Nc1cccc(Nc2nc(Nc3ccc4c(c3)OC[C@H]3COCCN43)ncc2C(F)(F)F)c1 [Compound A8R] |
| < 0.01 µM | < 0.1 µM |  |  | C=CC(=O)Nc1cccc(Nc2nc(Nc3ccc4c(c3)OC[C@@H]3COCCN43)ncc2C(F)(F)F)c1 [Compound A8S] |
|  |  | < 0.05 µM | < 0.05 µM | CC(C)(C)OC(=O)N1CCN2c3ccc(Nc4ncc(C(N)=O)c(NC5CC5)n4)cc3OC[C@H]2C1 [Compound C7R] |
|  |  | < 0.01 µM | < 0.05 µM | NC(=O)c1cnc(Nc2ccc3c(c2)OC[C@H]2CNCCN32)nc1NC1CC1 [Compound C8R] |
|  |  | < 0.05 µM | < 0.01 µM | NC(=O)c1cnc(Nc2ccc3c(c2)OC[C@H]2CN(S(=O)(=O)c4ccccc4)CCN32)nc1NC1CC1 [Compound C9R] |
|  |  | < 0.01 µM | < 0.01 µM | CS(=O)(=O)N1CCN2c3ccc(Nc4ncc(C(N)=O)c(NC5CC5)n4)cc3OC[C@H]2C1 [Compound C11R] |
|  |  | < 0.01 µM | < 0.01 µM | CC(C)S(=O)(=O)N1CCN2c3ccc(Nc4ncc(C(N)=O)c(NC5CC5)n4)cc3OC[C@H]2C1 [Compound C12R] |
|  |  | < 0.01 µM | < 0.01 µM | NC(=O)c1cnc(Nc2ccc3c(c2)OC[C@H]2CN(S(=O)(=O)C4CCOCC4)CCN32)nc1NC1CC1 [Compound C13R] |
|  |  | < 0.01 µM | < 0.01 µM | CN(C)S(=O)(=O)N1CCN2c3ccc(Nc4ncc(C(N)=O)c(NC5CC5)n4)cc3OC[C@H]2C1 [Compound C14R] |
|  |  | < 0.05 µM | < 0.05 µM | C=CS(=O)(=O)N1CCN2c3ccc(Nc4ncc(C(N)=O)c(NC5CC5)n4)cc3OC[C@H]2C1 [Compound C15R] |
|  |  | < 0.05 µM | < 0.05 µM | NC(=O)c1cnc(Nc2ccc3c(c2)OC[C@H]2CN(S(N)(=O)=O)CCN32)nc1NC1CC1 [Compound C16R] |
|  |  | < 0.05 µM | < 0.05 µM | CN1CCN2c3ccc(Nc4ncc(C(N)=O)c(NC5CC5)n4)cc3C(=O)CC2C1 (centres unmarked) [Compound C17] |
|  |  | < 0.05 µM | < 0.05 µM | NC(=O)c1cnc(Nc2ccc3c(c2)OCC2COCCN32)nc1NC1CC1 (centres unmarked) [Compound C18R] |
